Test results: US20230165980A1, “METHODS FOR RADIOLABELING PSMA BINDING LIGANDS AND THEIR KITS” (Novartis AG, priority 2020, published 2023)

Experiment: API assay stability of the freeze dried kit (external calibration curve)
Assay type: physicochemical
Settings: final formulation kit
Protocol: Stability tests were performed on the freeze dried product containing the final formulation. […] Kits manufactured with the final formulation, indeed, were stored at different stability conditions (2-8° C.; 25° C. and 40° C.) and were tested at different time points for API-assay, Radiochemical Purity and Radiochemical Stability of the radiolabelled product. Radiochemical Purity and Stability were assessed only eluting IRE Generator which represented the most stressful condition in terms of Radioactive Concentration (Volumic Activity).

Compound: O=C(O)CCc1ccc(O)c(CN(CCN(CC(=O)O)Cc2cc(CCC(=O)NCCCCCC(=O)NCCCC[C@H](NC(=O)N[C@@H](CCC(=O)O)C(=O)O)C(=O)O)ccc2O)CC(=O)O)c1 [PSMA-11]
- API quantitation, 1. injection (3 months at 2-8° C.): 28.87 µg
- API quantitation, 2. injection (3 months at 2-8° C.): 29.21 µg
- API quantitation, 3. injection (3 months at 2-8° C.): 28.44 µg
- API quantitation, Average (3 months at 2-8° C.): 28.84 µg
- API quantitation, 1. injection (3 months at 25° C.): 28.19 µg
- API quantitation, 2. injection (3 months at 25° C.): 29.57 µg
- API quantitation, 3. injection (3 months at 25° C.): 28.33 µg
- API quantitation, Average (3 months at 25° C.): 28.70 µg
- API quantitation, 1. injection (3 months at 40° C.): 28.17 µg
- API quantitation, 2. injection (3 months at 40° C.): 28.05 µg
- API quantitation, 3. injection (3 months at 40° C.): 28.06 µg
- API quantitation, Average (3 months at 40° C.): 28.10 µg
- API quantitation, 1. injection (6 months at 2-8° C.): 29.79 µg
- API quantitation, 2. injection (6 months at 2-8° C.): 29.61 µg
- API quantitation, 3. injection (6 months at 2-8° C.): 29.43 µg
- API quantitation, Average (6 months at 2-8° C.): 29.61 µg
- API quantitation, 1. injection (6 months at 25° C.): 29.35 µg
- API quantitation, 2. injection (6 months at 25° C.): 29.31 µg
- API quantitation, 3. injection (6 months at 25° C.): 29.06 µg
- API quantitation, Average (6 months at 25° C.): 29.24 µg
- API quantitation, 1. injection (6 months at 40° C.): 28.81 µg
- API quantitation, 2. injection (6 months at 40° C.): 28.87 µg
- API quantitation, 3. injection (6 months at 40° C.): 28.98 µg
- API quantitation, Average (6 months at 40° C.): 28.89 µg
- API quantitation, 1. injection (Release (Manufacturing date)): 28.31 µg
- API quantitation, 2. injection (Release (Manufacturing date)): 28.76 µg
- API quantitation, 3. injection (Release (Manufacturing date)): 27.40 µg
- API quantitation, Average (Release (Manufacturing date)): 28.15 µg
